This experiment relates to primary normal human airway epithelial (HAE) cells. The experiment in a line: Intracellular pH of HAE cells by pH-sensitive dye fluorescence microscopy. In kind it is cell-based. The conditions noted are these: HAE cells pre-loaded with 1.25 μM BCECF-AM; normalized to pre-treatment; n=3; ZnCl2 at 100 μM.

With `[Cl-].[Cl-].[Zn+2]` [ZnCl2, zinc chloride], the “BCECF-AM fluorescence intensity (increases as pH increases)” value is on record as “essentially eliminating fluorescence”.
